Positions count from the first letter of the chain named. Read-outs that look alike come from different tables or passages of the source.
Tests used:
Test in all cases: radioligand binding, Q-sepharose adsorption, scintillation counting
[1] = target: T1, Pry3 CAP domain (Pry3-CAP) (Saccharomyces cerevisiae, UniProt P47033, V117M); details: labelled compound; 20 mM Tris pH 7.5, 30 mM NaCl, 0.05% Triton X-100, 30°C, 1 h
T1 sequence (P47033 18-161 V117M): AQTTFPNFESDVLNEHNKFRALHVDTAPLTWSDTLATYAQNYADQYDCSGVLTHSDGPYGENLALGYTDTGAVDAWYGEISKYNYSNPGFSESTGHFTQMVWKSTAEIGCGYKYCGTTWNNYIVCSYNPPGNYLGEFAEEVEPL

[2] = target: T2, Pry3 CAP domain (Pry3-CAP) (Saccharomyces cerevisiae, UniProt P47033)
T2 sequence (P47033 18-161): T1 sequence (P47033 18-161 V117M) with M100V

[3] = target: T3, Pry1 CAP domain (Saccharomyces cerevisiae, UniProt P47032)
T3 sequence (P47032 20-299 limits assumed): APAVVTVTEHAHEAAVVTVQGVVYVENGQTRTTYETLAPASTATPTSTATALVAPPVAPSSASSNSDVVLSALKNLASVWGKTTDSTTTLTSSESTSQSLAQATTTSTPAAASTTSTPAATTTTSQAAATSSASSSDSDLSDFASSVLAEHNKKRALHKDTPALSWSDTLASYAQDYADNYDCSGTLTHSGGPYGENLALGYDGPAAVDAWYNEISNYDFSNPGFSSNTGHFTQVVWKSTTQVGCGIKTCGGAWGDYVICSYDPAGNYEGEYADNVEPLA
From the text: radioligand binding, Q-sepharose adsorption, scintillation counting on Pry1 CAP domain | Polyhistidine-tagged versions of the CAP domain of Pry1, Pry3 and mutant versions of Pry3 | The affinity of Pry3 to palmitic acid is thus similar to that of Pry1

[4] = target: T4, Pry3 CAP domain (Pry3-CAP) (Saccharomyces cerevisiae, UniProt P47033, P105C/A155C); details: labelled compound; 20 mM Tris pH 7.5, 30 mM NaCl, 0.05% Triton X-100, 30°C, 1 h
T4 sequence (P47033 18-161 P105C/A155C): T1 sequence (P47033 18-161 V117M) with P88C, M100V, A138C

[5] = target: T5, Pry3 CAP domain (Pry3-CAP) (Saccharomyces cerevisiae, UniProt P47033, C142S); details: labelled compound; 20 mM Tris pH 7.5, 30 mM NaCl, 0.05% Triton X-100, 30°C, 1 h
T5 sequence (P47033 18-161 C142S): T1 sequence (P47033 18-161 V117M) with M100V, C125S

Kd [3] [µM]	Structure (SMILES)	radioligand binding, Q-sepharose adsorption, scintillation counting [1]	Kd [2] [µM]	radioligand binding, Q-sepharose adsorption, scintillation counting [4]	radioligand binding, Q-sepharose adsorption, scintillation counting [5]	Kd ([3]; labelled compound, 20 mM Tris pH 7.5, 30 mM NaCl, 0.05% Triton X-100, 30°C, 1 h) [µM]
111	CCCCCCCCCCCCCCCC(=O)O [palmitic acid]	Pry3^V117M failed to efficiently bind palmitic acid in vitro	114			
	CC(C)CCC[C@@H](C)[C@H]1CC[C@H]2[C@@H]3CC=C4C[C@@H](O)CC[C@]4(C)[C@H]3CC[C@]12C [cholesterol]		13.1	decreased sterol-binding of Pry3-CAP^P105C, A155C to background levels	as present in Pry3-CAP^C142S, disrupted sterol binding in vitro	1.88

Reference: article PMC7340583, “The yeast cell wall protein Pry3 inhibits mating through highly conserved residues within the CAP domain” (Biology Open, 2020)
